In ChEMBL document CHEMBL4251578, “Design, synthesis and biological evaluation of novel 2-aminobenzamides containing dithiocarbamate moiety as histone deacetylase inhibitors and potent antitumor agents” (Eur J Med Chem, 2018):

Columns and labels:
HeLa = experiment: Antiproliferative activity against human HeLa cells after 72 hrs by CCK-8 assay; format: functional, cell-based
SMMC-7721 [1] = experiment: Induction of apoptosis in human SMMC7721 cells assessed as necrotic cells at 0.125 umol/L after 72 hrs by Alexa Fluor 488 Annexin/propidium iodide staining-based flow cytometric analysis (reference value: 2.48%); format: functional
SMMC-7721 [2] = experiment: Induction of apoptosis in human SMMC7721 cells assessed as viable cells at 0.125 umol/L after 72 hrs by Alexa Fluor 488 Annexin/propidium iodide staining-based flow cytometric analysis (reference value: 97.14%); format: functional; conditions: SMMC-7721, 72 h, read-out: Activity
SMMC-7721 [3] = experiment: Induction of apoptosis in human SMMC7721 cells assessed as necrotic cells at 4 umol/L after 72 hrs by Alexa Fluor 488 Annexin/propidium iodide staining-based flow cytometric analysis (reference value: 2.48%); format: functional
SMMC-7721 [4] = experiment: Antiproliferative activity against human SMMC7721 cells after 72 hrs by CCK-8 assay; format: functional, cell-based; conditions: for IC50: SMMC-7721, 72 h
SMMC-7721 [5] = experiment: Cell cycle arrest in human SMMC7721 cells assessed as accumulation of cells at G0/G1 phase at 1 umol/L after 72 hrs by propidium iodide staining-based flow cytometric analysis (reference value: 80.65%); format: functional
Histone deacetylase = experiment: Inhibition of HDAC in human HeLa cell extract using Fluor de Lys-Green as substrate preincubated for 5 mins followed by substrate addition and measured after 1 hr by fluorescence assay; format: protein assay
SMMC-7721 [6] = experiment: Induction of apoptosis in human SMMC7721 cells assessed as early apoptotic cells at 1 umol/L after 72 hrs by Alexa Fluor 488 Annexin/propidium iodide staining-based flow cytometric analysis (reference value: 0.09%); format: functional
SMMC-7721 [7] = experiment: Cell cycle arrest in human SMMC7721 cells assessed as accumulation of cells at S phase at 1 umol/L after 72 hrs by propidium iodide staining-based flow cytometric analysis (reference value: 5.21%); format: functional
SMMC-7721 [8] = experiment: Induction of apoptosis in human SMMC7721 cells assessed as late apoptotic cells at 1 umol/L after 72 hrs by Alexa Fluor 488 Annexin/propidium iodide staining-based flow cytometric analysis (reference value: 0.29%); format: functional
SMMC-7721 [9] = experiment: Cell cycle arrest in human SMMC7721 cells assessed as accumulation of cells at S phase at 4 umol/L after 72 hrs by propidium iodide staining-based flow cytometric analysis (reference value: 5.21%); format: functional
SMMC-7721 [10] = experiment: Induction of apoptosis in human SMMC7721 cells assessed as late apoptotic cells at 0.125 umol/L after 72 hrs by Alexa Fluor 488 Annexin/propidium iodide staining-based flow cytometric analysis (reference value: 0.29%); format: functional
A-375 [11] = experiment: Antiproliferative activity against human A375 cells at 2 uM after 72 hrs by CCK-8 assay relative to control; format: functional; conditions: A-375, 72 h
SMMC-7721 [12] = experiment: Cell cycle arrest in human SMMC7721 cells assessed as accumulation of cells at G2/M phase at 0.125 umol/L after 72 hrs by propidium iodide staining-based flow cytometric analysis (reference value: 14.14%); format: functional
A-375 [13] = experiment: Antiproliferative activity against human A375 cells after 72 hrs by CCK-8 assay; format: functional, cell-based; conditions: for IC50: A-375, 72 h
MGC-803 = experiment: Antiproliferative activity against human MGC803 cells at 8 uM after 72 hrs by CCK-8 assay relative to control; format: functional; conditions: MGC-803, 72 h
SMMC-7721 [14] = experiment: Cell cycle arrest in human SMMC7721 cells assessed as accumulation of cells at […] phase after 72 hrs by propidium iodide staining-based flow cytometric analysis; format: functional

IC50 (HeLa) [nM] | IC50 (SMMC-7721 [4]) [nM] | IC50 (Histone deacetylase) [nM] | IC50 (A-375 [13]) [nM] | Compound | Activity (HeLa) | Activity (SMMC-7721 [1]) [%] | viability at 0.125 µM (SMMC-7721 [2]) [%] | Activity (SMMC-7721 [3]) [%] | Activity (SMMC-7721 [4]) | Activity (SMMC-7721 [5]) [%] | Activity (SMMC-7721 [6]) [%] | Activity (SMMC-7721 [7]) [%] | Activity (SMMC-7721 [8]) [%] | Activity (SMMC-7721 [9]) [%] | Activity (SMMC-7721 [10]) [%] | inhibition at 2 µM (A-375 [11]) [%] | Activity (SMMC-7721 [12]) [%] | Activity (A-375 [13]) | inhibition at 8 µM (MGC-803) [%] | Activity (SMMC-7721 [14])
790 | 1340 | 720 | 1270 | Nc1ccccc1NC(=O)c1ccc(CSC(=S)N2CCN(c3ccncc3)CC2)cc1 | Dose-dependent effect | 11.27 | 72.5 | 3.17 | Dose-dependent effect | 79.27 | 17.23 | 7.04 | 11.06 | 2.76 | 12.55 | 85.7 | 12.01 | Dose-dependent effect | 87.1 | 
1460 | 1200 |  | 1970 | Nc1ccccc1NC(=O)c1ccc(CSC(=S)N2CCc3ccccc3C2)cc1 |  | 3.49 | 71.2 | 1.94 |  | 67.59 | 27.39 | 9.25 | 12.44 | 7.63 | 10.62 | 55.5 | 15.89 |  | 87.5 | Dose-dependent effect
1040 | 1210 | 1800 | 1940 | CCN(Cc1ccncc1)C(=S)SCc1ccc(C(=O)Nc2ccccc2N)cc1 |  | 12.93 | 73.1 | 1.27 |  | 71.44 | 18.06 | 7.45 | 14.06 | 9.19 | 11.22 | 67.2 | 11.92 |  | 85.2 | Dose-dependent effect
